Patent publication US11008292B2, “FGFR4 inhibitor and preparation method and use thereof” (GUANGDONG ZHONGSHENG PHARMACEUTICAL CO., LTD, priority 2016, dated 2021)

How the values were obtained:
[1] = target: T1, FGFR4 kinases (Homo sapiens, UniProt P22455); test: In vitro enzyme activity test, Z′-LYTE Assay, FGFR4 enzymatic reaction; format: biochemical; conditions: Z′-LYTE detection; 150 μM ATP
T1 construct: purchased Life technology
Description: (§1) The inhibitory effects of the compounds on FGFR4 kinases were assessed by detecting the enzymatic activities through Z′-LYTE® Assay, with the IC50 value of the compound as the indicator. This activity test was performed by Life technology.
(§2) The test compounds were diluted in a concentration gradient of 3-times, the final concentrations were 10 concentrations ranging from 10 μM to 0.5 nM, with double hole for each concentration; the content of DMSO in the detection reaction was 1%.
FGFR4 Enzymatic Reaction:
[…] The detection plate was Bar-coded Corning, low volume NBS, black 384-well plate, reaction conducted at room temperature for 60 minutes, and the reaction system was 10μμL.
(§3) To the kinase reaction solution was added 5 μL Development reagent B (1:64) to stop the reaction and incubated at 23° C. for 60 minutes, reading the plate with Envision instrument.
(§4) Data was transformed into the phosphorylation rate and the inhibitory rate by curve fitting with Model 205 in XLFIT (iDBS) to obtain the IC50 data of the compounds. It was set as 0% if the bottom of the curve was not in the range of −20% to 20%; otherwise it was set as 100% if the top of the curve was not in the range of 70% to 130%.

[2] = target: T2, FGFR1 protein kinase (Homo sapiens, UniProt P11362); test: In vitro enzyme activity test, Z′-LYTE Assay, FGFR1 enzymatic reaction; format: biochemical; conditions: Z′-LYTE detection; 25 μM ATP
T2 construct: purchased Life technology
Description: as §1, §2
FGFR1 Enzymatic Reaction:
1 nM FGFR1 protein kinase, 2 μM Tyr4 peptide, 25 μM ATP, 50 mM HEPES (pH 7.5), 10 mM MgCl2, 1 mM EGTA, 0.01% BRIJ-35, 2 mM MnCl2, 1 mM DTT. The detection plate was Black Proxiplate 384-Plus plate (PerkinElmer), reaction conducted at room temperature for 60 minutes, and the reaction system was 10μμL.
as §3, §4

[3] = Pharmacokinetic evaluation in mice (IV and oral gavage); format: in vivo, female Balb/c nude mice; conditions: for AUC(0-t) / clearance / half-life / Vd / Cmax / Tmax: mouse, plasma; for clearance: read-out: Cl (plasma clearance); for half-life: read-out: T1/2 (elimination half-life) (converted); for Vd: read-out: Vdss (steady-state apparent volume of distribution); for Cmax: read-out: Cmax (peak concentration); for Tmax: read-out: Tmax (time to peak)
Description: […] The test compound suspended in the corresponding solvent at 1 mg/ml was administered by gavage to female Balb/c nude mice (fasted overnight, at an age of 7-9 weeks), with a dosage of 10 mg/kg. Two groups of animals were both blood sampled about 30 μL from jugular vein or tail vein at 0.0833, 0.25, 0.5, 1.0, 2.0, 4.0, 6.0, 8.0 and 24 h post-administration, which was placed into an anticoagulant tube charged with EDTA-K2, and plasma was separated by centrifugation. Plasma concentrations were determined by LC-MS/MS process using WinNonlin™ Version 6.3 (Pharsight, Mountain View, Calif.) pharmacokinetic software, calculating the related pharmacokinetic parameters with a linear logarithmic trapezoidal method for […] models.

[4] = test system: Hep3B Transplantation Models; test: Tumor growth inhibition (TGI), antitumor activity test of mice in vivo; conditions: 100 mg/kg, BID, Hep3B transplantation model
Description: The evolutionary growth potential of a tumor was assessed by the relationship between the volume of the tumor and time. The long axis (L) and short axis (W) of a subcutaneous tumor were determined by a caliper twice a week, the tumor volume (TV) was calculated by the formula of ((L×W^2)/2). TGI was calculated by the difference value between the median of tumor volumes of mice in the solvent group and the median of tumor volumes of mice in the drug group, and represented by the percentage accounting for the median of tumor volumes in the solvent control group,
Calculated by the following formula: % TGI=((the median of tumor volume (control group)−the median of tumor volume (dosing group))/the median of tumor volume (control group))×100%
The original statistical analysis was completed by the analysis of repeated variance determination. Subsequently, multiple comparisons were performed by a Scheffe psot hoc experimental method. Single solvent (0.5% methylcellulose+1% aqueous solution of Tween) was the negative control.

[5] = IV tail vein 2 mg/kg, female Balb/c nude mice
[6] = PO gavage 10 mg/kg, female Balb/c nude mice

T1 sequence (P22455 22-802): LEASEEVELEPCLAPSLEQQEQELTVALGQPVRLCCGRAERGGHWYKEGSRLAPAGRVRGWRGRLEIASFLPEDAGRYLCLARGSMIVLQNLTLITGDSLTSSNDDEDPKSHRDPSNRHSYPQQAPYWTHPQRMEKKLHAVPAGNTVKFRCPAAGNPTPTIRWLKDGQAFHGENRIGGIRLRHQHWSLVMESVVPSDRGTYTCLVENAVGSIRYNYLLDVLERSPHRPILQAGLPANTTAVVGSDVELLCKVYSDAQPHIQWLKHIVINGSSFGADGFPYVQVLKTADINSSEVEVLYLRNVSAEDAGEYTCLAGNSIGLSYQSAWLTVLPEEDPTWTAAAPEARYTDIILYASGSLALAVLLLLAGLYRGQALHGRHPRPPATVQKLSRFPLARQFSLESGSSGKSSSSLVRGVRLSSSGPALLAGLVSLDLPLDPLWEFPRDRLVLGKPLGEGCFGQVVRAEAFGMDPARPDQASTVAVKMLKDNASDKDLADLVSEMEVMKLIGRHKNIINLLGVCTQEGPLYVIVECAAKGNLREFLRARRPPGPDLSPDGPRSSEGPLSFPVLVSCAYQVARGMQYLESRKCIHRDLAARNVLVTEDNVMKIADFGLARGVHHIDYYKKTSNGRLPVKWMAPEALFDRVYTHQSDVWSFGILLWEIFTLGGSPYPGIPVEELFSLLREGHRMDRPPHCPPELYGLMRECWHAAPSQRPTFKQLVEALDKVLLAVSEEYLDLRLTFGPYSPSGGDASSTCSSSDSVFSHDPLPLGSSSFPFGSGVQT
T2 sequence (P11362 22-822): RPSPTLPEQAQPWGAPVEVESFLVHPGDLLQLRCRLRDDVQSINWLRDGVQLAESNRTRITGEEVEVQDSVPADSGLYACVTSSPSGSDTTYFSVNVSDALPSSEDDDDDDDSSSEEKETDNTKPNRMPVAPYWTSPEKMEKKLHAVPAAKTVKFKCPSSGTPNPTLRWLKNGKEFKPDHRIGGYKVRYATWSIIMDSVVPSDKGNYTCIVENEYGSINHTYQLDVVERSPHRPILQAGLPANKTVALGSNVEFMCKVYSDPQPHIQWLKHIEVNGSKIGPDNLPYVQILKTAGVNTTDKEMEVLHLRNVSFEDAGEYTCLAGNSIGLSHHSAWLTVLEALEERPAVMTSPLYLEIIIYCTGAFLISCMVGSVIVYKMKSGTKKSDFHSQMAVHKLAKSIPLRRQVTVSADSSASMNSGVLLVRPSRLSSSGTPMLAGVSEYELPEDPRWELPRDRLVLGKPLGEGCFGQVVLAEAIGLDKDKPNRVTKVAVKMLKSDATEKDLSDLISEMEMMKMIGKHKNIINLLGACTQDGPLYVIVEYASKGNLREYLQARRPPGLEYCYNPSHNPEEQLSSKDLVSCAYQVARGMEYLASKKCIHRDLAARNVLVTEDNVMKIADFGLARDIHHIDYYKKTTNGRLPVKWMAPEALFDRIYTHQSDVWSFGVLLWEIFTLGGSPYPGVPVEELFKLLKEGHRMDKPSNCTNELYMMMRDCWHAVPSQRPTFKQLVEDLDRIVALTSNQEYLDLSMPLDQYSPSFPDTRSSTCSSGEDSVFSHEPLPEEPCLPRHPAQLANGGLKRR

IC50 [1] [nM] | IC50 [2] [nM] | stability enhanced (plasma clearance) compared with the control example 4 ([3]; IV, mice, ratio to control example 4) [times] | AUC(0-t) [3, 5] [µM·h] | clearance [3, 5] [mL/min/kg] | half-life [3, 5] [min] | Vd [3, 5] [L/kg] | AUC(0-t) [3, 6] [µM·h] | Cmax [3, 6] [nM] | Tmax [3, 6] [min] | F (bioavailability; oral absorption ratio) ([3]; PO gavage 10 mg/kg vs IV 2 mg/kg, female Balb/c nude mice) [%] | SMILES | TGI % (dosing on Day 21 for the last time) [4] [%]
67.5 | 2520 | 3 | 2.8 | 23.9 | 40.6 | 1.2 | 5.64 | 3290 | 30 | – | C=CC(=O)N[C@H]1CCOC[C@H]1Nc1ncc(/C=C(\F)c2c(Cl)c(OC)cc(OC)c2Cl)cn1 [Example 16] | 89
17 | 1460 | – | 1.42 | 48.2 | 17.5 | 0.723 | 1.07 | 1120 | 15 | 20.4 | C=CC(=O)NC1COCC1Nc1ncc(C=C(F)c2c(Cl)c(OC)cc(OC)c2Cl)cn1 (single isomer, unassigned) [Example 21] | 106
